Experimental findings from patent US20260327216A1, “SUBSTITUTED OXAZOLONE COMPOUND FOR DECREASING LEVELS OF IKZF I-4 PROTEINS” (BRISTOL-MYERS SQUIBB COMPANY, priority 2023, published 2026) are described below.

What all share (type): cell-based
One assay addresses IKZF1 Ikaros (Homo sapiens, UniProt Q13422+Q96SW2). The experiment in a line: Jurkat Cellular Degradation Assay, IKZF1. Details: endogenous in cells. Particulars: Jurkat cells, 72 h; for Dmax: human, 100% = complete degradation, 0% = no detectable degradation, read-out: IKZF1 Ikaros max % deg. observed. The method, then: (§1) Jurkat cells were plated at 80,000 cells/well in 40 μL RPMI+10% FBS in a 384-well cell culture plate prior to using acoustic dispensing technology for adding a compound of interest. Cell cultures were incubated for 72 h at 37° C. and 5% CO2. In order to facilitate analysis, cell cultures were spun down at 200 rpm for 5 min and the supernatant was discarded. After shaking the plate to dislodge the cell pellet, cells were resuspended in 50 μL of Fixation Buffer (eBioscience FoxP3 buffer set 00-5523-00) for 60 min at room temperature. After centrifuging and discarding the supernatant, cells were permeabilized with 50 μL of Permeabilization buffer (eBioscience FoxP3 buffer set 00-5523-00) for 10 min at room temperature. Following permeabilization, cells were spun down and the supernatant was replaced with 20 μL fluorescently labelled antibodies against Helios, Ikaros and Aiolos or corresponding Isotype controls in 1× Permeabilization buffer (Ikaros-Alexa488 [Biolegend, Cat #368408, 1:50], Helios-PE [CST, Cat #29360, 1:50], Aiolos-Alexa647 [Biolegend, Cat #371106 Biolegend, 1:25]) and staining reactions were incubated for 1 h at room temperature while protected from light. Subsequently, 30 μL of 1× Permeabilization buffer was added prior to centrifuging the cells and discarding the supernatant. Stained cells were resuspended in 25 μL of flow cytometry staining buffer [PBS+0.2% bovine serum albumin (BSA)] and analyzed using an Intellicyt Ique Plus flow cytometer.
(§2) Table A-1 lists the maximum observed degradation of the IKZF1 protein, IKZF2 protein, and IKZF3 protein as measured in the Jurkat Cellular Degradation assay. The results in Table A-1 were rounded to two digits. In the Jurkat Cellular Degradation assay, a value of 100% indicated no detectable protein remaining or complete degradation of the protein; and a value of 0% indicated no detectable degradation of the protein by the test compound.

For assay [1], the target named is T1, IKZF2 Helios (Homo sapiens, UniProt Q96SW2+Q9UKS7). Put plainly: Human Regulatory T Cell Reprogramming Assay, IKZF2. The following applies: 12-13 days; for IKZF2 Helios max % deg. observed / Dmax: human CD4+CD127lowCD25+ Treg cells, stimulated, 100% = complete degradation; for Dmax: Regulatory T cell, human, read-out: IKZF2 Helios max % deg. observed. Details: endogenous in cells; host or cells: FACS-sorted human CD4+CD127lowCD25+ Treg cells from healthy leukopaks. The method, then: (§3) Human CD4^+ T cells were isolated from fresh healthy leukopaks (Stemcell Technologies) using the RosetteSep Human CD4^+ T cell enrichment cocktail (Stemcell Technologies) and Ficoll density gradient centrifugation. Leukopaks were diluted with an equal volume of phosphate-buffered saline (PBS [Gibco]) supplemented with 2% fetal bovine serum (FBS, VWR Lifescience) and incubated with RosetteSep Human CD4^+ T cell enrichment cocktail for 20 minutes before layering on Ficoll-Paque Plus solution (GE Health Care). The cell-rich interface layer was harvested and washed twice with PBS supplemented with 2% FBS. Regulatory T cells were then isolated manually using the EasySep Human CD4^+CD127^lowCD25^+ Regulatory T cell isolation kit (Stemcell Technologies) according to the manufacturer's instructions. Cells were rested overnight in Roswell Park Memorial Institute (RPMI) 1640 media (Gibco) supplemented with 10% FBS, Pen/Strep (Gibco), MEM-NEAA (Gibco), and sodium pyruvate (Gibco) in a humidified incubator (37° C., 5% CO2). Cells were then stained for CD4 (clone: RPA-T4, Biolegend), CD25 (clone: 2A3, BD Biosciences), and CD127 (clone: hIL-7R-M21, BD Biosciences). CD4^+CD127^lowCD25^+ cells were sorted on a BD FACS Aria Fusion sorter to a purity of 95% or greater. Sorted cells were immediately used or cryopreserved for downstream assays.
(§4) Fresh or cryopreserved FACS-sorted CD4^+CD127^lowCD25^+ Treg cells were cultured at 25,000-50,000 cells/well of 96-well round bottom plates in RPMI 1640 media (Gibco) supplemented with 10% FBS, Pen/Strep (Gibco), MEM-NEAA (Gibco), and sodium pyruvate (Gibco). Cells were stimulated with Treg Xpander beads (Thermo Fisher) at cells-to-beads ratio of 1:4 in the presence of 500 U/mL recombinant human IL-2 (Proleukin). Compounds were added at titrated doses and cells were incubated at 37°C., 5% CO2 for 12-13 days. Recombinant human IL-2 and compound were replenished every 2-3 days during the entire culture duration. On day 12 or 13, cells were restimulated with phorbol 12-myristate 13-acetate (PMA) and ionomycin in the presence of the protein transport inhibitors brefeldin A and monensin (eBioscience Cell Stimulation Cocktail plus protein transport inhibitors, 500×, Catalog number 00-4975-93) before proceeding with flow cytometry staining and analysis.
(§5) For flow cytometry staining, cells were washed twice with flow cytometry staining buffer (Thermo Fisher) and incubated in Human Tru-stain Fc block (Biolegend) for 10 minutes before adding eFluor780 viability dye (Thermo Fisher) and surface marker antibody cocktail for 30 minutes at 4° C. Cells were then fixed and permeabilized by incubation with FoxP3 transcription factor staining buffer (Thermo Fisher) for 30 minutes at 4° C. as per the kit manufacturer's instructions. Cells were washed twice with the Perm/Wash buffer supplied in the kit as per the manufacturer's instructions and incubated overnight at 4° C. with an intracellular antibody cocktail comprised of antibodies specific for the transcription factors shown in Table C. Cells were washed twice with Perm/Wash buffer and resuspended in flow cytometry staining buffer (Thermo Fisher) prior to acquisition. Sample acquisition and analysis was performed using a BD LSRFortessa (BD Biosciences) flow cytometer. Single stain controls for each fluorochrome were prepared using UltraComp eBead Compensation Beads (Thermo Fisher). Data were analyzed using FlowJo version 10 and GraphPad Prism Software.
(§6) Table C-1 lists the maximum observed degradation of the IKZF2 protein and IKZF4 protein as measured in the Human Regulatory T Cell Reprogramming assay. The results in Table C-1 were rounded to two digits. In the Human Regulatory T Cell Reprogramming assay, a value of 100% indicated no detectable protein remaining or complete degradation of the protein; and a value of 0% indicated no detectable degradation of the protein by the test compound.

For assay [2], the target named is T1, IKZF2 Helios. The experiment in a line: Jurkat Cellular Degradation Assay, IKZF2. More on the design: endogenous in cells. Particulars: 72 h, Jurkat cells; for Dmax: Jurkat, human, 100% = complete degradation, 0% = no detectable degradation, read-out: IKZF2 Helios max % deg. observed. How it is done: as §1, §2
A further assay has as its target T2, IKZF4 Eos (Homo sapiens, UniProt Q96SW2+Q9H2S9).
T2 construct: endogenous in cells; host or cells: FACS-sorted human CD4+CD127lowCD25+ Treg cells from healthy leukopaks
The experiment in a line: Human Regulatory T Cell Reprogramming Assay, IKZF4. Particulars: 12-13 days; for IKZF4 Eos max % deg. observed / Dmax: human CD4+CD127lowCD25+ Treg cells, stimulated, 100% = complete degradation; for Dmax: Regulatory T cell, human, read-out: IKZF4 Eos max % deg. observed. How it is done: as §3, §4, §5, §6

Where [3] appears, read: concentration reducing protein level by 50% vs DMSO.
The mark [4] stands for this setting: human Treg cells, concentration reducing protein level by 50% vs DMSO.

T2 sequence (Q9H2S9 whole entry): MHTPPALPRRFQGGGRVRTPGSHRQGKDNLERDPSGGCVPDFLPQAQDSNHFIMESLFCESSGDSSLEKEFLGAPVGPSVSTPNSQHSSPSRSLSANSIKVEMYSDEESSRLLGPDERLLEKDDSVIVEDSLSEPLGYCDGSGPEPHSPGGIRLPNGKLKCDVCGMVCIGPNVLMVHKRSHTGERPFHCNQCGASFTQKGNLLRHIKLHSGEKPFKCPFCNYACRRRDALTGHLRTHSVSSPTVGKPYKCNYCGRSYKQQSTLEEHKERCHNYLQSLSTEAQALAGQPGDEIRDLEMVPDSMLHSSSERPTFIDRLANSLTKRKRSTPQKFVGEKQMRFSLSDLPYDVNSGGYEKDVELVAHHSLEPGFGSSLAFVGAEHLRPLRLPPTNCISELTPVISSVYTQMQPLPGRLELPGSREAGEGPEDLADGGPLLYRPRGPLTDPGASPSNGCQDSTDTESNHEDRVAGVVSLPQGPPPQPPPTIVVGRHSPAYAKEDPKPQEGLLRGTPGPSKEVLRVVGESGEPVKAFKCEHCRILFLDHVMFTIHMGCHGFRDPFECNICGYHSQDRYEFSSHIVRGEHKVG
T2 sequence (Q96SW2 whole entry): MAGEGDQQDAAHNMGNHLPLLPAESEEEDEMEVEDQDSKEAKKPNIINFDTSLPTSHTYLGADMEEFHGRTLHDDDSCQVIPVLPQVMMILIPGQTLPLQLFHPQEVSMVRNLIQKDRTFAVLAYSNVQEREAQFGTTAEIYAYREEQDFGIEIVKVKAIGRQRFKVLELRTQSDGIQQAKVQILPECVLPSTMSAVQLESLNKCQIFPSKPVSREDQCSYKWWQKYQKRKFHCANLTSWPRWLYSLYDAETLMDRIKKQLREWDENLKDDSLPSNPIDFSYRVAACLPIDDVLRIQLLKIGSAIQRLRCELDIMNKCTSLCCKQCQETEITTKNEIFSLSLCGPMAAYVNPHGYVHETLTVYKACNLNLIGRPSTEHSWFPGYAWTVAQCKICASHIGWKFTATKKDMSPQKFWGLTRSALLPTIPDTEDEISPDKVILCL
T2 sequence (Q16531 whole entry partner): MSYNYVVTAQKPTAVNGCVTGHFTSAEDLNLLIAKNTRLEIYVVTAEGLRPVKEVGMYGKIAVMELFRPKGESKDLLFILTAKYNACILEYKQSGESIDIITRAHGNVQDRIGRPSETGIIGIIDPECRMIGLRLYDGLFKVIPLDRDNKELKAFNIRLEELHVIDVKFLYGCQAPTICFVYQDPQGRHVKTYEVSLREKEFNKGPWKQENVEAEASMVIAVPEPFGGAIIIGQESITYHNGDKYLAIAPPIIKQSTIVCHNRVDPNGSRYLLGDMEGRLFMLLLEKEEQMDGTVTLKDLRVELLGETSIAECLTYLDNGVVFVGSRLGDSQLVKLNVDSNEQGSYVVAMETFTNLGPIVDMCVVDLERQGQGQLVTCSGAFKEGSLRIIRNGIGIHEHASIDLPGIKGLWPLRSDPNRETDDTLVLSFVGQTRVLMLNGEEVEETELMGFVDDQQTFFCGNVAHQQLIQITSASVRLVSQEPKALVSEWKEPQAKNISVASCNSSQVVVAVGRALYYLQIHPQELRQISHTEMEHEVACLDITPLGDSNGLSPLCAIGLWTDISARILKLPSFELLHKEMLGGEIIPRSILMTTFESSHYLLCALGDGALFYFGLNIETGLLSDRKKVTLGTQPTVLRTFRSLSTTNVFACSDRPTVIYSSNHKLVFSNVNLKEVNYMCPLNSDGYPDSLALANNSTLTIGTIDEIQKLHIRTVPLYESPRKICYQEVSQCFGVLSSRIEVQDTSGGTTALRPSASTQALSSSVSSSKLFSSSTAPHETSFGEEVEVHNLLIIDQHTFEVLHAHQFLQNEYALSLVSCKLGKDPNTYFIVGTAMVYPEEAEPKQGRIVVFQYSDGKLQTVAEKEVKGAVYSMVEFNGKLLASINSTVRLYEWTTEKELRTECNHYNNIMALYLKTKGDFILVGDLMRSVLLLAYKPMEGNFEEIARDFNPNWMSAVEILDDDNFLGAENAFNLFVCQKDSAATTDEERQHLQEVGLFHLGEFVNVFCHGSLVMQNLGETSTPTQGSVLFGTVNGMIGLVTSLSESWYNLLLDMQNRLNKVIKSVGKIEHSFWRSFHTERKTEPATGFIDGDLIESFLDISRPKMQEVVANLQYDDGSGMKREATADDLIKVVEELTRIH
Chain of IKZF1 Ikaros (Q13422 whole entry): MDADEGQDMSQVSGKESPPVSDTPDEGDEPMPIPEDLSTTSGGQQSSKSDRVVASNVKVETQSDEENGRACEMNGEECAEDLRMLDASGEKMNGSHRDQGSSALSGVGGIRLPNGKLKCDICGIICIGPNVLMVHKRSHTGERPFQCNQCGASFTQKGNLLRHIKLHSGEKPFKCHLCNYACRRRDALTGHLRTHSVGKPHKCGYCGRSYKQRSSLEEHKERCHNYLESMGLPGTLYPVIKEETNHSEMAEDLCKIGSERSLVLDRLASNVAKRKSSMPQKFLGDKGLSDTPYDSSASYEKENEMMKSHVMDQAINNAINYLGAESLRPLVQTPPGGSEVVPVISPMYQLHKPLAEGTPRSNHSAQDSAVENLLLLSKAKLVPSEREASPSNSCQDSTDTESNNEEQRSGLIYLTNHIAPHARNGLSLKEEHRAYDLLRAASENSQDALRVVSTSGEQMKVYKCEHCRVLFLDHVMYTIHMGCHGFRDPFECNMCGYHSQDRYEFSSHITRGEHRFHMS
Chain of IKZF1 Ikaros (Q96SW2 whole entry): as the sequence (Q96SW2 whole entry) above
Chain of IKZF1 Ikaros (Q16531 whole entry partner): as the sequence (Q16531 whole entry partner) above
T1 sequence (Q9UKS7 whole entry): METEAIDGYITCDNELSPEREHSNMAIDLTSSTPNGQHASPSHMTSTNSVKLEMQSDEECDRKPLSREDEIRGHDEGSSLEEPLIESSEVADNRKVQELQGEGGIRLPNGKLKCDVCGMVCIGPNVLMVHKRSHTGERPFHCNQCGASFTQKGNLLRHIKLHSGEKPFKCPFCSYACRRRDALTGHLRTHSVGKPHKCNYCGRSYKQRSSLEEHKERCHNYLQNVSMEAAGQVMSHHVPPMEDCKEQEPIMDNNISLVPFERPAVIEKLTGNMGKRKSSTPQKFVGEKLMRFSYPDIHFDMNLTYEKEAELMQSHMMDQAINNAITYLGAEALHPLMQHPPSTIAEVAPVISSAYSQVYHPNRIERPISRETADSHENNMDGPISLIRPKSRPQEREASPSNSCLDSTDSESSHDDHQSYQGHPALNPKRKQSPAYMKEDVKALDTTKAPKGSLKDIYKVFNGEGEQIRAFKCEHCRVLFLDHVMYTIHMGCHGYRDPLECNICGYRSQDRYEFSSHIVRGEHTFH
T1 sequence (Q96SW2 whole entry): as the sequence (Q96SW2 whole entry) above
T1 sequence (Q16531 whole entry partner): as the sequence (Q16531 whole entry partner) above

On to `O=C1CCC(n2cc(-c3ccccc3)oc2=O)C(=O)N1` (stereo not shown) [Comparative Compound A, 3-(2-oxo-5-phenyloxazol-3(2H)-yl)piperidine-2,6-dione], for which the Dmax is 57% at IKZF1 Ikaros and less than 30% on IKZF2 Helios [2]. Besides, at IKZF2 Helios [1], the “IKZF2 Helios max % deg. observed” value turned out to be 1%. For the same compound, the “IKZF4 Eos max % deg. observed” value on IKZF4 Eos was 0%.
In the case of `O=C1CCC(n2cc(-c3ccc(Br)cc3F)oc2=O)C(=O)N1` (stereo not shown) [Comparative Compound B, 3-(5-(4-bromo-2-fluorophenyl)-2-oxooxazol-3(2H)-yl)piperidine-2,6-dione], the Dmax on IKZF1 Ikaros was 17%. On IKZF2 Helios [1], the Dmax was not above 6% and the “IKZF2 Helios max % deg. observed” value stood at 6%. In addition, at IKZF4 Eos, the Dmax is not above 11% and the “IKZF4 Eos max % deg. observed” value is 11%.
As for `Cc1cc(-c2ccc(-c3cn(C4CCC(=O)NC4=O)c(=O)o3)c(F)c2)nc(N)c1OC(F)F` (stereo not shown) [Example 1, 3-(5-(4-(6-Amino-5-(difluoromethoxy)-4-methylpyridin-2-yl)-2-fluorophenyl)-2-oxooxazol-3(2H)-yl)piperidine-2,6-dione], the DC50 on IKZF1 Ikaros (setting [3]) is 749 nM; at IKZF2 Helios [1] (setting [4]), 1.1 to 1.4 nM; on IKZF2 Helios [2] (setting [3]), 17.9 nM; at IKZF4 Eos (setting [4]), 0.45 nM. Moreover, the Dmax at IKZF1 Ikaros is 70%; at IKZF2 Helios [1] it was 86 to 92%; at IKZF2 Helios [2], more than 90%; at IKZF4 Eos, 68 to 71%. For the same compound, the “IKZF2 Helios max % deg. observed” value at IKZF2 Helios [1] is 86-92%. In addition, the “IKZF4 Eos max % deg. observed” value on IKZF4 Eos is given as 68-71%.
